# Where two headings read alike, the source gives them in different places.
# How the values were obtained:
# [1] = target: T1, M3 subtype muscarinic receptor (Sus scrofa, UniProt P11483); experiment: ACh-induced short-circuit current (ΔIsc) in cultured airway mucus gland cells, Ussing chamber, Schild dose-ratio method; type: cell-based, swine; details: for effect on the cholinergic (ACh) response / antimuscarinic action: at highest drug concentration tested: cetirizine 100 μM, loratadine 30 μM (Table 1; abstract 10 μM), fexofenadine 10 μM; for Muscarinic inhibition (pA2): Schild dose-ratio method, slope set to 1, inhibition of ACh-induced ΔIsc, pA2 = -log Ki, mean ± SEM
# T1 construct: Tracheal submucosal gland cells were isolated from the tracheal epithelium; endogenous in cells; host or cells: primary swine tracheal submucosal (mucus) gland cells in culture
# T1 sequence (P11483 whole entry): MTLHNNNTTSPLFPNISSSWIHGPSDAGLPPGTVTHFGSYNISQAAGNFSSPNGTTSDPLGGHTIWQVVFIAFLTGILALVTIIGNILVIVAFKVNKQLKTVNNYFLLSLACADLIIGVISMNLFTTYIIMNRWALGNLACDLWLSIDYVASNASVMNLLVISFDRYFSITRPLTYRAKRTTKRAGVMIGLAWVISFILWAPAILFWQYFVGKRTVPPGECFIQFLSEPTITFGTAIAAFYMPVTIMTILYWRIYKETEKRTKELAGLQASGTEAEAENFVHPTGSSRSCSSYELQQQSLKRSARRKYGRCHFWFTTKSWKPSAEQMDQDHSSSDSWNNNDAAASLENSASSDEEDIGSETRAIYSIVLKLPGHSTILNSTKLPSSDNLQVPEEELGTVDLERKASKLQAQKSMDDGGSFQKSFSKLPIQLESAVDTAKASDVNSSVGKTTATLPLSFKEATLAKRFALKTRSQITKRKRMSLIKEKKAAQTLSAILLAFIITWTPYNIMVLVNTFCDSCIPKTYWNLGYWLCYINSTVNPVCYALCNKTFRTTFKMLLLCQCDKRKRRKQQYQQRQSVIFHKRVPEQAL
# [2] = target: T2, H1 receptor (Sus scrofa, UniProt K9IVW0); experiment: histamine-induced short-circuit current (ΔIsc) in cultured airway mucus gland cells, Ussing chamber; type: cell-based, swine
# T2 construct: Tracheal submucosal gland cells were isolated from the tracheal epithelium; endogenous in cells; host or cells: primary swine tracheal submucosal (mucus) gland cells in culture
# T2 sequence (K9IVW0 1-472): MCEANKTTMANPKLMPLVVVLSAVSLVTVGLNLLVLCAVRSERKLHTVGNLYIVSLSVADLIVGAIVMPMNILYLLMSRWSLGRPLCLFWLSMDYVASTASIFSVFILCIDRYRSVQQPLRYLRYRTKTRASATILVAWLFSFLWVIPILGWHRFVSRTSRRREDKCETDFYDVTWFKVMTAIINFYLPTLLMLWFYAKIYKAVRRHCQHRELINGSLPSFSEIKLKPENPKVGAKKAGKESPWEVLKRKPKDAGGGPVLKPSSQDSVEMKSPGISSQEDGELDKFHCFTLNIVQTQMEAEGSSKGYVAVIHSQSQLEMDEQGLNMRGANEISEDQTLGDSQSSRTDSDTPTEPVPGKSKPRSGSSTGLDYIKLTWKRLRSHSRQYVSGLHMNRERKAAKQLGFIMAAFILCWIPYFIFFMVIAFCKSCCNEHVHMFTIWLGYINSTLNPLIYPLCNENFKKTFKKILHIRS
# [3] = target: muscarinic receptors in the cerebral cortex; details: read-out: Ki against muscarinic receptors, radioligand (QNB) binding, all muscarinic subtypes, ref 16 Kubo et al.; cited from earlier work
# [4] = target: histamine H1 receptor; details: radioligand binding assays; ref 18 Anthes et al.; cited from earlier work
# [5] = read-out: H1 receptor inhibition (~1/2 max-μM)
compound,measurement,setting,value
O=C(O)COCCN1CCN(C(c2ccccc2)c2ccc(Cl)cc2)CC1 (centres unmarked) [Cetirizine],effect on the cholinergic (ACh) response / antimuscarinic action,[1],No effect (at 100 μM)
same,effect on the cholinergic (ACh) response / antimuscarinic action,[1]; listed as cetirizine,no effects
same,IC50,[2]; [5],0.12 µM
CC(C)(C(=O)O)c1ccc(C(O)CCCN2CCC(C(O)(c3ccccc3)c3ccccc3)CC2)cc1 (centres unmarked) [Fexofenadine],IC50,[2]; H1 receptor inhibition (~1/2 max-μM),0.25 µM
"CC(=O)OCC[N+](C)(C)C [ACh, acetylcholine]",maximum increase in current (ΔIsc),[1],15.5 ± 1 μA/cm^2
COc1ccccc1CNCCCCCCNCCCCCCCCNCCCCCCNCc1ccccc1OC [Methoctramine],Kb,[1],2510 nM
same,Muscarinic inhibition (pA2),[1],5.6
NCCc1c[nH]cn1 [histamine],maximum increase in current (ΔIsc),[2],19 ± 1 μA/cm^2
OCCOCCN1CCN(C(c2ccccc2)c2ccc(Cl)cc2)CC1 (centres unmarked) [Hydroxyzine],Kb,[1],15800 nM
same,Ki,"[1]; M3 muscarinic receptor induced ΔIsc, from Schild analysis, read-out: estimated Ki for inhibition of muscarinic receptors",15000 nM
same,Muscarinic inhibition (pA2),[1],4.8
same,IC50,[2]; [5],0.14 µM
same,Ki,[3],3800 nM
same,Kb,[4],10 nM

# Source: PMC1079883, “Effects of first and second generation antihistamines on muscarinic induced mucus gland cell ion transport” (BMC Pharmacology, 2005)
